Laboratory results published in the supplement of paper PMC11451515.

What was measured:
Conditions in all cases: 48 h
NOMO1 [1] = assay: AUC of viability dose-response curve (% viability x log10 dose units); higher = less sensitive
Procedure, shortened: (§1)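 Over 48 h at 37°C, leukemia cells in 1536-well plates (500 or 1000 cells/well), adapted to each medium, received library compounds in DMSO at 11 threefold doses from 47 μM to 0.79 nM. CellTiter-Glo One luminescence, normalised per plate to DMSO and cell-free wells, was fitted by a four-parameter log-logistic function of log10 dose. The area under the curve was then integrated by trapezoidal rule, after scaling curves above full viability and removing those that failed quality control.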

P12-Ichikawa [2] = assay: as above
Procedure, shortened: as §1

SEM cells [3] = assay: as above
Procedure, shortened: as §1

NOMO1 [4] = assay: cell viability relative to DMSO control; higher = less cytotoxic
Procedure, shortened: (§2)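 NOMO1 or SEM cells were plated at 500 cells/well and P12-Ichikawa cells at 1000 cells/well in 1536-well plates (5 μl), after each leukemia line had been adapted for at least four passages in each medium. Pin dosing delivered library compounds in DMSO at 11 threefold concentrations, 47 μM to 0.79 nM. CellTiter-Glo One luminescence was read after 48 h at 37°C. Viability is reported as a per-plate percentage of DMSO wells, with cell-free wells as background.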

P12-Ichikawa [5] = assay: as above
Procedure, shortened: as §2

SEM cells [6] = assay: as above
Procedure, shortened: as §2

C[N]1C=NC=C1[C@@](N)(C2=CC=C(Cl)C=C2)C3=CC=C4N(C)C(=O)\C=C(\C5=CC=CC(=C5)Cl)C4=C3
AUC of viability dose-response curve
Conditions | NOMO1 [1] | P12-Ichikawa [2] | SEM cells [3]
HPLM + 10% dialyzed FBS | 398 | 377 | 284
RPMI 5 mM glucose + 10% FBS | 430 | 352 | 279
RPMI 5 mM glucose + 10% dialyzed FBS | 401 | 376 | 342

cell viability [%]
Conditions | NOMO1 [4] | P12-Ichikawa [5] | SEM cells [6]
HPLM + 10% dialyzed FBS, 0.000781 µM | 108 | 111 | 112
HPLM + 10% dialyzed FBS, 0.00234 µM | 98.5 | 110 | 126
HPLM + 10% dialyzed FBS, 0.00702 µM | 112 | 113 | 111
HPLM + 10% dialyzed FBS, 0.0211 µM | 129 | 106 | 103
HPLM + 10% dialyzed FBS, 0.0632 µM | 91.5 | 109 | 65.5
HPLM + 10% dialyzed FBS, 0.19 µM | 95.4 | 97.4 | 53.1
HPLM + 10% dialyzed FBS, 0.569 µM | 84.9 | 82.4 | 50.7
HPLM + 10% dialyzed FBS, 1.71 µM | 83.4 | 79.2 | 48.5
HPLM + 10% dialyzed FBS, 5.12 µM | 76.2 | 73 | 49.2
HPLM + 10% dialyzed FBS, 15.4 µM | 73.5 | 50.1 | 39.8
HPLM + 10% dialyzed FBS, 46.1 µM | 47.2 | 27.9 | 28.6
RPMI 5 mM glucose + 10% FBS, 0.000781 µM | 100 | 110 | 105
RPMI 5 mM glucose + 10% FBS, 0.00234 µM | 95.6 | 113 | 116
RPMI 5 mM glucose + 10% FBS, 0.00702 µM | 95.5 | 113 | 109
RPMI 5 mM glucose + 10% FBS, 0.0211 µM | 93.2 | 106 | 101
RPMI 5 mM glucose + 10% FBS, 0.0632 µM | 102 | 100 | 72.2
RPMI 5 mM glucose + 10% FBS, 0.19 µM | 94.2 | 81.2 | 43.9
RPMI 5 mM glucose + 10% FBS, 0.569 µM | 90.3 | 82.9 | 51.7
RPMI 5 mM glucose + 10% FBS, 1.71 µM | 84.8 | 69 | 43.7
RPMI 5 mM glucose + 10% FBS, 5.12 µM | 85.4 | 67.7 | 40.6
RPMI 5 mM glucose + 10% FBS, 15.4 µM | 82.6 | 42.1 | 33.9
RPMI 5 mM glucose + 10% FBS, 46.1 µM | 52.8 | 32.3 | 13.6
RPMI 5 mM glucose + 10% dialyzed FBS, 0.000781 µM | 112 | 105 | 105
RPMI 5 mM glucose + 10% dialyzed FBS, 0.00234 µM | 111 | 114 | 102
RPMI 5 mM glucose + 10% dialyzed FBS, 0.00702 µM | 121 | 115 | 97.9
RPMI 5 mM glucose + 10% dialyzed FBS, 0.0211 µM | 106 | 100 | 108
RPMI 5 mM glucose + 10% dialyzed FBS, 0.0632 µM | 110 | 107 | 98.5
RPMI 5 mM glucose + 10% dialyzed FBS, 0.19 µM | 97.3 | 92.2 | 71
RPMI 5 mM glucose + 10% dialyzed FBS, 0.569 µM | 97.1 | 85.5 | 65.9
RPMI 5 mM glucose + 10% dialyzed FBS, 1.71 µM | 87.7 | 72.8 | 62.8
RPMI 5 mM glucose + 10% dialyzed FBS, 5.12 µM | 80.9 | 69.6 | 55
RPMI 5 mM glucose + 10% dialyzed FBS, 15.4 µM | 67.4 | 59.9 | 49.7
RPMI 5 mM glucose + 10% dialyzed FBS, 46.1 µM | 41.7 | 39.3 | 22.3

CCC[C@@H]1C[C@@H](C(=O)N[C@@H]([C@H]2O[C@H](SC)[C@H](O)[C@@H](O)[C@H]2O)[C@@H](C)O)N(C)C1.Cl
AUC of viability dose-response curve
Conditions | NOMO1 [1] | P12-Ichikawa [2] | SEM cells [3]
HPLM + 10% dialyzed FBS | 428 | 448 | 471
RPMI 5 mM glucose + 10% FBS | 463 | 438 | 473
RPMI 5 mM glucose + 10% dialyzed FBS | 457 | 399 | 465

cell viability [%]
Conditions | NOMO1 [4] | P12-Ichikawa [5] | SEM cells [6]
HPLM + 10% dialyzed FBS, 0.000781 µM | 103 | 119 | 125
HPLM + 10% dialyzed FBS, 0.00234 µM | 121 | 113 | 121
HPLM + 10% dialyzed FBS, 0.00702 µM | 123 | 122 | 118
HPLM + 10% dialyzed FBS, 0.0211 µM | 122 | 111 | 109
HPLM + 10% dialyzed FBS, 0.0632 µM | 125 | 122 | 119
HPLM + 10% dialyzed FBS, 0.19 µM | 128 | 125 | 127
HPLM + 10% dialyzed FBS, 0.569 µM | 110 | 111 | 114
HPLM + 10% dialyzed FBS, 1.71 µM | 100 | 98.8 | 122
HPLM + 10% dialyzed FBS, 5.12 µM | 79 | 97.8 | 103
HPLM + 10% dialyzed FBS, 15.4 µM | 96 | 106 | 117
HPLM + 10% dialyzed FBS, 46.1 µM | 68.8 | 100 | 91
RPMI 5 mM glucose + 10% FBS, 0.000781 µM | 129 | 119 | 110
RPMI 5 mM glucose + 10% FBS, 0.00234 µM | 121 | 114 | 114
RPMI 5 mM glucose + 10% FBS, 0.00702 µM | 107 | 106 | 105
RPMI 5 mM glucose + 10% FBS, 0.0211 µM | 111 | 112 | 99.3
RPMI 5 mM glucose + 10% FBS, 0.0632 µM | 114 | 119 | 120
RPMI 5 mM glucose + 10% FBS, 0.19 µM | 111 | 123 | 110
RPMI 5 mM glucose + 10% FBS, 0.569 µM | 124 | 89.9 | 130
RPMI 5 mM glucose + 10% FBS, 1.71 µM | 103 | 83 | 111
RPMI 5 mM glucose + 10% FBS, 5.12 µM | 111 | 96 | 111
RPMI 5 mM glucose + 10% FBS, 15.4 µM | 124 | 102 | 111
RPMI 5 mM glucose + 10% FBS, 46.1 µM | 111 | 101 | 97.4
RPMI 5 mM glucose + 10% dialyzed FBS, 0.000781 µM | 118 | 122 | 113
RPMI 5 mM glucose + 10% dialyzed FBS, 0.00234 µM | 112 | 117 | 119
RPMI 5 mM glucose + 10% dialyzed FBS, 0.00702 µM | 119 | 128 | 141
RPMI 5 mM glucose + 10% dialyzed FBS, 0.0211 µM | 105 | 140 | 118
RPMI 5 mM glucose + 10% dialyzed FBS, 0.0632 µM | 119 | 145 | 136
RPMI 5 mM glucose + 10% dialyzed FBS, 0.19 µM | 109 | 108 | 133
RPMI 5 mM glucose + 10% dialyzed FBS, 0.569 µM | 111 | 66.4 | 132
RPMI 5 mM glucose + 10% dialyzed FBS, 1.71 µM | 108 | 70 | 137
RPMI 5 mM glucose + 10% dialyzed FBS, 5.12 µM | 107 | 112 | 125
RPMI 5 mM glucose + 10% dialyzed FBS, 15.4 µM | 104 | 95.9 | 104
RPMI 5 mM glucose + 10% dialyzed FBS, 46.1 µM | 98 | 94.4 | 116

COc1cc(N2CCC(C(N)=O)CC2)ccc1Nc1nc(N)c(Cl)c(Nc2ccccc2[S+](=O)([O-])C(C)C)n1
AUC of viability dose-response curve
Conditions | NOMO1 [1] | P12-Ichikawa [2] | SEM cells [3]
HPLM + 10% dialyzed FBS | 381 | 445 | 360
RPMI 5 mM glucose + 10% FBS | 393 | 421 | 375
RPMI 5 mM glucose + 10% dialyzed FBS | 372 | 410 | 350

cell viability [%]
Conditions | NOMO1 [4] | P12-Ichikawa [5] | SEM cells [6]
HPLM + 10% dialyzed FBS, 0.000781 µM | 85.6 | 88.6 | 81.4
HPLM + 10% dialyzed FBS, 0.00234 µM | 79.1 | 97.4 | 83.3
HPLM + 10% dialyzed FBS, 0.00702 µM | 99.3 | 102 | 87.8
HPLM + 10% dialyzed FBS, 0.0211 µM | 98.3 | 95.2 | 96.1
HPLM + 10% dialyzed FBS, 0.0632 µM | 84.8 | 111 | 82.2
HPLM + 10% dialyzed FBS, 0.19 µM | 96.5 | 106 | 104
HPLM + 10% dialyzed FBS, 0.569 µM | 99.6 | 108 | 97.6
HPLM + 10% dialyzed FBS, 1.71 µM | 87.1 | 104 | 84.1
HPLM + 10% dialyzed FBS, 5.12 µM | 66 | 96.9 | 66.5
HPLM + 10% dialyzed FBS, 15.4 µM | 46.7 | 84.1 | 13.3
HPLM + 10% dialyzed FBS, 46.1 µM | 2.93 | 3.45 | 3.39
RPMI 5 mM glucose + 10% FBS, 0.000781 µM | 91.9 | 81.9 | 103
RPMI 5 mM glucose + 10% FBS, 0.00234 µM | 83.5 | 102 | 109
RPMI 5 mM glucose + 10% FBS, 0.00702 µM | 94 | 101 | 107
RPMI 5 mM glucose + 10% FBS, 0.0211 µM | 89.9 | 107 | 104
RPMI 5 mM glucose + 10% FBS, 0.0632 µM | 89 | 103 | 97.6
RPMI 5 mM glucose + 10% FBS, 0.19 µM | 96.4 | 98.1 | 108
RPMI 5 mM glucose + 10% FBS, 0.569 µM | 92 | 99.9 | 120
RPMI 5 mM glucose + 10% FBS, 1.71 µM | 91.2 | 95.9 | 92.9
RPMI 5 mM glucose + 10% FBS, 5.12 µM | 75.5 | 77.8 | 43
RPMI 5 mM glucose + 10% FBS, 15.4 µM | 65.9 | 64.6 | 6.28
RPMI 5 mM glucose + 10% FBS, 46.1 µM | 2.25 | 2.33 | 3.46
RPMI 5 mM glucose + 10% dialyzed FBS, 0.000781 µM | 83.9 | 91.3 | 74.8
RPMI 5 mM glucose + 10% dialyzed FBS, 0.00234 µM | 94.2 | 104 | 85.1
RPMI 5 mM glucose + 10% dialyzed FBS, 0.00702 µM | 90.9 | 98.8 | 94.3
RPMI 5 mM glucose + 10% dialyzed FBS, 0.0211 µM | 80.1 | 94.7 | 76.9
RPMI 5 mM glucose + 10% dialyzed FBS, 0.0632 µM | 96.4 | 103 | 88.5
RPMI 5 mM glucose + 10% dialyzed FBS, 0.19 µM | 93.8 | 97.9 | 88.8
RPMI 5 mM glucose + 10% dialyzed FBS, 0.569 µM | 89.6 | 100 | 99.4
RPMI 5 mM glucose + 10% dialyzed FBS, 1.71 µM | 80.4 | 88 | 86
RPMI 5 mM glucose + 10% dialyzed FBS, 5.12 µM | 60.7 | 74.9 | 69
RPMI 5 mM glucose + 10% dialyzed FBS, 15.4 µM | 54.1 | 54.9 | 13.2
RPMI 5 mM glucose + 10% dialyzed FBS, 46.1 µM | 4.26 | 4.65 | 2.73
